Source: ChEMBL document CHEMBL1201862, “PubChem BioAssay data set” (2004)
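Cultured in 96-well plates, cells were exposed to test compound for 48 hours across five concentrations. GI50: concentration for 50% inhibition of growth.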 Calls of active or inactive are those of the source. Cut-off read from the data, not from the text of the source: active = GI50 up to about 1.1 µM and inactive = higher.

Columns and labels:
Experiment in all cases: NCI-60 cell line screen, 48 h
Malme-3M = system: Malme-3M
M19-MEL = system: M19-MEL
SF-539 = system: SF-539
OVCAR-4 = system: OVCAR-4
U-251 = system: U-251
NCI-H522 = system: NCI-H522
SNB-19 = system: SNB-19
DLD-1 = system: DLD-1
SK-MEL-28 = system: SK-MEL-28
HOP-18 = system: HOP-18
NCI-H23 = system: NCI-H23
M14 = system: M14
UO-31 = system: UO-31
HCC 2998 = system: HCC 2998
OVCAR-8 = system: OVCAR-8
OVCAR-5 = system: OVCAR-5
XF498 = system: XF498
NCI-H460 = system: NCI-H460
SNB-78 = system: SNB-78
SF-295 = system: SF-295
SK-MEL-2 = system: SK-MEL-2
HT-29 = system: HT-29
NCI-H226 = system: NCI-H226
HL-60 = system: HL-60
KM12 = system: KM12
COLO 205 = system: COLO 205
UACC-257 = system: UACC-257
TK-10 = system: TK-10
CAKI-1 = system: CAKI-1
HCT-116 = system: HCT-116
EKVX = system: EKVX
ACHN = system: ACHN
SF-268 = system: SF-268
LXFL 529 = system: LXFL 529
HOP-92 = system: HOP-92
DMS-114 = system: DMS-114
SK-MEL-5 = system: SK-MEL-5
SNB-75 = system: SNB-75
SW-620 = system: SW-620
LOX IMVI = system: LOX IMVI
786-0 = system: 786-0
HOP-62 = system: HOP-62
KM-20L2 = system: KM-20L2
DMS-273 = system: DMS-273
OVCAR-3 = system: OVCAR-3
SN12C = system: SN12C
A549 = system: A549
MOLT-4 = system: MOLT-4
A498 = system: A498
SK-OV-3 = system: SK-OV-3
IGROV-1 = system: IGROV-1
RXF 393 = system: RXF 393
CCRF-CEM = system: CCRF-CEM
K562 = system: K562
RPMI-8226 = system: RPMI-8226

**Q.** Which GI50 (Malme-3M) does the source give for `[N-]=[N+]=N[C@H]1C[C@@H](CO)O[C@H]1n1cnc2c(N)ncnc21` here?
**A.** > 100 µM (inactive)

**Q.** And the GI50 (M19-MEL)?
**A.** > 100 µM (inactive)

**Q.** And the GI50 (SF-539)?
**A.** > 100 µM (inactive)

**Q.** What about the GI50 (OVCAR-4) of the same compound?
**A.** > 100 µM (inactive)

**Q.** What about the GI50 (U-251) of the same compound?
**A.** > 100 µM (inactive)

**Q.** What about the GI50 (NCI-H522) of the same compound?
**A.** > 100 µM (inactive)

**Q.** And the GI50 (SNB-19)?
**A.** > 100 µM (inactive)

**Q.** And the GI50 (DLD-1)?
**A.** > 100 µM (inactive)

**Q.** What about the GI50 (SK-MEL-28) of the same compound?
**A.** > 100 µM (inactive)

**Q.** And the GI50 (HOP-18)?
**A.** 0.202 µM (active)

**Q.** And the GI50 (NCI-H23)?
**A.** > 100 µM (inactive)

**Q.** What about the GI50 (M14) of the same compound?
**A.** > 100 µM (inactive)

**Q.** What about the GI50 (UO-31) of the same compound?
**A.** > 100 µM (inactive)

**Q.** And the GI50 (HCC 2998)?
**A.** > 100 µM (inactive)

**Q.** And the GI50 (OVCAR-8)?
**A.** > 100 µM (inactive)

**Q.** What about the GI50 (OVCAR-5) of the same compound?
**A.** > 100 µM (inactive)

**Q.** What about the GI50 (XF498) of the same compound?
**A.** 31.2 µM (inactive)

**Q.** What about the GI50 (NCI-H460) of the same compound?
**A.** > 100 µM (inactive)

**Q.** And the GI50 (SNB-78)?
**A.** > 100 µM (inactive)

**Q.** What about the GI50 (SF-295) of the same compound?
**A.** > 100 µM (inactive)

**Q.** What about the GI50 (SK-MEL-2) of the same compound?
**A.** > 100 µM (inactive)

**Q.** And the GI50 (HT-29)?
**A.** > 100 µM (inactive)

**Q.** What about the GI50 (NCI-H226) of the same compound?
**A.** > 100 µM (inactive)

**Q.** What about the GI50 (HL-60) of the same compound?
**A.** > 100 µM (inactive)

**Q.** What about the GI50 (KM12) of the same compound?
**A.** > 100 µM (inactive)

**Q.** And the GI50 (COLO 205)?
**A.** > 100 µM (inactive)

**Q.** What about the GI50 (UACC-257) of the same compound?
**A.** > 100 µM (inactive)

**Q.** And the GI50 (TK-10)?
**A.** > 100 µM (inactive)

**Q.** And the GI50 (CAKI-1)?
**A.** > 100 µM (inactive)

**Q.** And the GI50 (HCT-116)?
**A.** > 100 µM (inactive)

**Q.** And the GI50 (EKVX)?
**A.** 57.4 µM (inactive)

**Q.** And the GI50 (ACHN)?
**A.** > 100 µM (inactive)

**Q.** What about the GI50 (SF-268) of the same compound?
**A.** > 100 µM (inactive)

**Q.** And the GI50 (LXFL 529)?
**A.** > 100 µM (inactive)

**Q.** And the GI50 (HOP-92)?
**A.** > 100 µM (inactive)

**Q.** And the GI50 (DMS-114)?
**A.** > 100 µM (inactive)

**Q.** What about the GI50 (SK-MEL-5) of the same compound?
**A.** > 100 µM (inactive)

**Q.** What about the GI50 (SNB-75) of the same compound?
**A.** > 100 µM (inactive)

**Q.** What about the GI50 (SW-620) of the same compound?
**A.** > 100 µM (inactive)

**Q.** And the GI50 (LOX IMVI)?
**A.** > 100 µM (inactive)

**Q.** What about the GI50 (786-0) of the same compound?
**A.** > 100 µM (inactive)

**Q.** What about the GI50 (HOP-62) of the same compound?
**A.** > 100 µM (inactive)

**Q.** And the GI50 (KM-20L2)?
**A.** > 100 µM (inactive)

**Q.** What about the GI50 (DMS-273) of the same compound?
**A.** > 100 µM (inactive)

**Q.** What about the GI50 (OVCAR-3) of the same compound?
**A.** > 100 µM (inactive)

**Q.** What about the GI50 (SN12C) of the same compound?
**A.** > 100 µM (inactive)

**Q.** And the GI50 (A549)?
**A.** > 100 µM (inactive)

**Q.** How did the GI50 (Malme-3M) turn out when `CCOC(=O)CCC1(C(=O)OC)CCCC1=O` (configuration not stated) was run?
**A.** > 100 µM (inactive)

**Q.** And the GI50 (M19-MEL)?
**A.** > 100 µM (inactive)

**Q.** What about the GI50 (SF-539) of the same compound?
**A.** > 100 µM (inactive)

**Q.** What about the GI50 (U-251) of the same compound?
**A.** > 100 µM (inactive)

**Q.** And the GI50 (NCI-H522)?
**A.** > 100 µM (inactive)

**Q.** What about the GI50 (SNB-19) of the same compound?
**A.** > 100 µM (inactive)

**Q.** And the GI50 (MOLT-4)?
**A.** > 100 µM (inactive)

**Q.** What about the GI50 (DLD-1) of the same compound?
**A.** > 100 µM (inactive)

**Q.** What about the GI50 (SK-MEL-28) of the same compound?
**A.** > 100 µM (inactive)

**Q.** What about the GI50 (A498) of the same compound?
**A.** > 100 µM (inactive)

**Q.** And the GI50 (HOP-18)?
**A.** 62.2 µM (inactive)

**Q.** What about the GI50 (NCI-H23) of the same compound?
**A.** > 100 µM (inactive)

**Q.** What about the GI50 (SK-OV-3) of the same compound?
**A.** > 100 µM (inactive)

**Q.** And the GI50 (UO-31)?
**A.** > 100 µM (inactive)

**Q.** And the GI50 (HCC 2998)?
**A.** > 100 µM (inactive)

**Q.** What about the GI50 (OVCAR-8) of the same compound?
**A.** > 100 µM (inactive)

**Q.** And the GI50 (OVCAR-5)?
**A.** > 100 µM (inactive)

**Q.** And the GI50 (XF498)?
**A.** > 100 µM (inactive)

**Q.** And the GI50 (NCI-H460)?
**A.** > 100 µM (inactive)

**Q.** What about the GI50 (SNB-78) of the same compound?
**A.** > 100 µM (inactive)

**Q.** And the GI50 (IGROV-1)?
**A.** > 100 µM (inactive)

**Q.** And the GI50 (SF-295)?
**A.** > 100 µM (inactive)

**Q.** And the GI50 (SK-MEL-2)?
**A.** > 100 µM (inactive)

**Q.** And the GI50 (HT-29)?
**A.** > 100 µM (inactive)

**Q.** And the GI50 (HL-60)?
**A.** > 100 µM (inactive)

**Q.** What about the GI50 (KM12) of the same compound?
**A.** > 100 µM (inactive)

**Q.** What about the GI50 (COLO 205) of the same compound?
**A.** > 100 µM (inactive)

**Q.** And the GI50 (UACC-257)?
**A.** > 100 µM (inactive)

**Q.** What about the GI50 (TK-10) of the same compound?
**A.** > 100 µM (inactive)

**Q.** What about the GI50 (RXF 393) of the same compound?
**A.** > 100 µM (inactive)

**Q.** What about the GI50 (HCT-116) of the same compound?
**A.** > 100 µM (inactive)

**Q.** What about the GI50 (EKVX) of the same compound?
**A.** > 100 µM (inactive)

**Q.** What about the GI50 (ACHN) of the same compound?
**A.** > 100 µM (inactive)

**Q.** What about the GI50 (CCRF-CEM) of the same compound?
**A.** > 10 µM (inactive)

**Q.** What about the GI50 (SF-268) of the same compound?
**A.** > 100 µM (inactive)

**Q.** What about the GI50 (LXFL 529) of the same compound?
**A.** > 100 µM (inactive)

**Q.** What about the GI50 (K562) of the same compound?
**A.** > 100 µM (inactive)

**Q.** And the GI50 (HOP-92)?
**A.** > 100 µM (inactive)

**Q.** And the GI50 (DMS-114)?
**A.** > 100 µM (inactive)

**Q.** What about the GI50 (SK-MEL-5) of the same compound?
**A.** > 100 µM (inactive)

**Q.** And the GI50 (SNB-75)?
**A.** > 100 µM (inactive)

**Q.** And the GI50 (SW-620)?
**A.** > 100 µM (inactive)

**Q.** And the GI50 (LOX IMVI)?
**A.** > 100 µM (inactive)

**Q.** And the GI50 (786-0)?
**A.** > 100 µM (inactive)

**Q.** And the GI50 (HOP-62)?
**A.** > 100 µM (inactive)

**Q.** What about the GI50 (KM-20L2) of the same compound?
**A.** > 100 µM (inactive)

**Q.** And the GI50 (DMS-273)?
**A.** > 100 µM (inactive)

**Q.** And the GI50 (OVCAR-3)?
**A.** > 100 µM (inactive)

**Q.** And the GI50 (RPMI-8226)?
**A.** > 100 µM (inactive)

**Q.** And the GI50 (A549)?
**A.** > 100 µM (inactive)
